Laboratory results: patent US20230416261A1, “ETHANEDIAMINE-HETEROCYCLE DERIVATIVES AS INHIBITORS OF PROTEIN ARGININE METHYLTRANSFERASES” (Board of Regents, The University of Texas System, priority 2021, published 2023)

Assays:
DOHH2 cells = test: DOHH2 Long Term Phenotypic Assay (7 days, Cell Titer-Glo viability); format: cell-based; conditions: Homo sapiens, DOHH-2, 168 h, Cell Titer-Glo 2.0
In short: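 DOHH2 lymphoma cells (250 per well) in RPMI-1640 with 10% FBS were exposed to 1:3 serially diluted compounds for 7 days at 37 °C, 5% CO2. Viability was read by CellTiter-Glo 2.0 luminescence, and IC50 values came from four-parameter logistic fits.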

PRMT1 [1] = target: T1, PRMT1 (Homo sapiens, UniProt Q99873); test: PRMT1 RKO Cellular Target Engagement Assay (In-Cell Western, asymmetric di-methyl arginine); format: cell-based; conditions: RKO cells, 48 hr compound incubation; read-out: RKO IC50 (PRMT-1 Target Engagement)
T1 sequence (Q99873 whole entry): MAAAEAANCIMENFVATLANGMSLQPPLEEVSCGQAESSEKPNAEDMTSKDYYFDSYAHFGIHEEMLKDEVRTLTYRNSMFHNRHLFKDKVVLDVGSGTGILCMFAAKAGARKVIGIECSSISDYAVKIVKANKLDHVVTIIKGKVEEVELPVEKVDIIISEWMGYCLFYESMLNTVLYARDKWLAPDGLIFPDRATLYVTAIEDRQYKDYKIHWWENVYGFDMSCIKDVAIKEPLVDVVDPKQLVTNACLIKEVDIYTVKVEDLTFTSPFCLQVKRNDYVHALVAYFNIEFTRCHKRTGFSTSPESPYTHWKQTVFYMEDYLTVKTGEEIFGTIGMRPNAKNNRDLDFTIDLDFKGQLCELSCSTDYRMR
In short: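 RKO cells (1,000/well) received 1:3 serially diluted compound for 48 h at 37 °C, then were fixed, permeabilised and immunostained for asymmetric di-methyl arginine by In-Cell Western. The 800 nm antibody signal was normalised to CellTag 700 nm; IC50 from four-parameter logistic fit.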

PATC53 cells = test: PATC53 Long Term Phenotypic Assay (14 days, crystal violet viability); format: cell-based; conditions: 336 h
In short: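 Cells seeded at 250 per well, allowed 24 h to settle, then treated with 1:3 serial dilutions of compound for 14 days at 37 °C, 5% CO2. Viability measured by crystal violet staining, solubilised in 10% HOAc, absorbance 590 nm; IC50 from four-parameter logistic fit.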

PRMT1 [2] = target: T1, PRMT1; test: PRMT1 Enzymatic Assay (LANCE TR-FRET, methylation of histone H4 at Arg3); format: biochemical; design: purchased SignalChem P365-380G; conditions: PRMT1 1.5 nM, SAM 1 μM, biotinylated histone H4 (1-21) 25 nM; read-out: PRMT-1 IC50
In short: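 PRMT1 (1.5 nM) preincubated 15 min with compound at room temperature, then reacted 1 h with 1 μM SAM and 25 nM biotinylated histone H4 (1-21) in 50 mM Hepes pH 8, 1 mM TCEP, 0.003% Tween-20. H4R3me detected by TR-FRET (665/620 nm ratio); IC50 from four-parameter logistic fit.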

Structure (SMILES) | IC50 (DOHH2 cells) [nM] | IC50 (PRMT1 [1]) [nM] | IC50 (PATC53 cells) [nM] | IC50 (PRMT1 [2]) [nM]
COCC1(COC)CCC(c2c(CN(C)CCN)nn3c2CN(C(=O)C2(C(F)(F)F)CC2)CC3)CC1 [Example 46, (2-(((2-aminoethyl)(methyl)-amino)methyl)-3-(4,4-bis-(methoxymethyl)cyclohexyl)-6,7-dihydropyrazolo[1,5-a]-pyrazin-5(4H)-yl)(1-(trifluoro-methyl)cyclopropyl)-methanone] | 288 | 486 | 294 | 29
COCC1(COC)CCC(c2c(CN(C)CCN)nn3c2CN(C(=O)C2CCC2)CC3)CC1 [Example 11, (2-(((2-aminoethyl)(methyl)-amino)methyl)-3-(4,4-bis-(methoxymethyl)cyclohexyl)-6,7-dihydropyrazolo[1,5-a]-pyrazin-5(4H)-yl)-(cyclobutyl)methanone] | 111 | 1210 | 70 | 16
CNCCN(C)Cc1nn2c(c1C1CCC(COC)(COC)CC1)CN(C(=O)C13CC(C1)C3)CC2 [Example 20, bicyclo[1.1.1]pentan-1-yl(3-(4,4-bis(methoxymethyl)-cyclohexyl)-2-((methyl(2-(methylamino)ethyl)amino)-methyl)-6,7-dihydropyrazolo-[1,5-a]pyrazin-5(4H)-yl)-methanone] | 103 | 239 | 50 | 62
CNCCN(C)Cc1nn2c(c1C1CCC(COC)(COC)CC1)CN(C(=O)C(C)(C)C#N)CC2 [Example 37, 3-(3-(4,4-bis(methoxy-methyl)cyclohexyl)-2-((methyl(2-(methylamino)-ethyl)amino)methyl)-6,7-dihydropyrazolo[1,5-a]-pyrazin-5(4H)-yl)-2,2-dimethyl-3-oxopropanenitrile] | 142 | 237 | 171 | 90
CNCCN(C)Cc1nn2c(c1C1CCC(COC)(COC)CC1)CN(C(=O)C1CC(C)(C)C1)CC2 [Example 39, (3-(4,4-bis(methoxymethyl)-cyclohexyl)-2-((methyl(2-(methylamino)ethyl)amino)-methyl)-6,7-dihydropyrazolo-[1,5-a]pyrazin-5(4H)-yl)(3,3-dimethylcyclobutyl)-methanone] | 108 | 177 | 49 | 79
CNCCN(C)Cc1nn2c(c1C1CCC(COC)(COC)CC1)CN(C(=O)C1(C#N)CC1)CC2 [Example 15, 1-(3-(4,4-bis(methoxy-methyl)cyclohexyl)-2-((methyl(2-(methylamino)-ethyl)amino)methyl)-4,5,6,7-tetrahydropyrazolo[1,5-a]-pyrazine-5-carbonyl)cyclopropane-1-carbonitrile] | 211 | 370 | 732 | 71
CNCCN(C)Cc1nn2c(c1C1CCC(COC)(COC)CC1)CN(C(=O)C(C)(C)C)CC2 [Example 8, 1-(3-(4,4-bis(methoxy-methyl)cyclohexyl)-2-((methyl(2-(methylamino)-ethyl)amino)methyl)-6,7-dihydropyrazolo[1,5-a]-pyrazin-5(4H)-yl)-2,2-dimethylpropan-1-one] | 67 | 913 | 100 | 36
COCC1(COC)CCC(c2c(CN(C)CCN)nn3c2CN(C(=O)C2CCC(F)(F)CC2)CC3)CC1 [Example 50, (2-(((2-aminoethyl)(methyl)-amino)methyl)-3-(4,4-bis-(methoxymethyl)cyclohexyl)-6,7-dihydropyrazolo[1,5-a]-pyrazin-5(4H)-yl)(4,4-difluorocyclohexyl)-methanone] | 171 | 1240 | 154 | 17
CNCCN(C)Cc1nn2c(c1C1CCC(COC)(COC)CC1)CN(C(=O)C(C)C)CC2 [Example 24, 1-(3-(4,4-bis(methoxy-methyl)cyclohexyl)-2-((methyl(2-(methylamino)-ethyl)amino)methyl)-6,7-dihydropyrazolo[1,5-a]-pyrazin-5(4H)-yl)-2-methylpropan-1-one] | 103 | 254 | 69 | 76
COCC1(COC)CCC(c2c(CN(C)CCN)nn3c2CN(C(=O)C2CCCC2)CC3)CC1 [Example 42, (2-(((2-aminoethyl)(methyl)-amino)methyl)-3-(4,4-bis-(methoxymethyl)cyclohexyl)-6,7-dihydropyrazolo[1,5-a]-pyrazin-5(4H)-yl)-(cyclopentyl)methanone] | 180 | 431 | 136 | 29
CNCCN(C)Cc1nn2c(c1C1CCC(COC)(COC)CC1)CN(C(=O)CC1CCC1)CC2 [Example 60, 1-(3-(4,4-bis(methoxy-methyl)cyclohexyl)-2-((methyl(2-(methylamino)-ethyl)amino)methyl)-6,7-dihydropyrazolo[1,5-a]-pyrazin-5(4H)-yl)-2-cyclobutylethan-1-one] | 82 | 345 | 33 | 54
COCC1(COC)CCC(c2c(CN(C)CCN)nn3c2CN(C(=O)C2CC(C)(C)C2)CC3)CC1 [Example 61, (2-(((2-aminoethyl)(methyl)-amino)methyl)-3-(4,4-bis-(methoxymethyl)cyclohexyl)-6,7-dihydropyrazolo[1,5-a]-pyrazin-5(4H)-yl)(3,3-dimethylcyclobutyl)-methanone] | 224 | 1950 | 68 | 23
CNCCN(C)Cc1nn2c(c1C1CCC(COC)(COC)CC1)CN(C(=O)C1CCOC1)CC2 (stereo not shown) [Example 35, (3-(4,4-bis(methoxymethyl)-cyclohexyl)-2-((methyl(2-(methylamino)ethyl)amino)-methyl)-6,7-dihydropyrazolo-[1,5-a]pyrazin-5(4H)-yl)-(tetrahydrofuran-3-yl)-methanone] | 212 | 818 | 655 | 62
CNCCN(C)Cc1nn2c(c1C1CCC(COC)(COC)CC1)CN(C(=O)CC1CC1)CC2 [Example 27, 1-(3-(4,4-bis(methoxy-methyl)cyclohexyl)-2-((methyl(2-(methylamino)-ethyl)amino)methyl)-6,7-dihydropyrazolo[1,5-a]-pyrazin-5(4H)-yl)-2-cyclopropylethan-1-one] | 79 | 318 | 115 | 59
CNCCN(C)Cc1nn2c(c1C1CCC(COC)(COC)CC1)CN(C(=O)C1CC(C(F)(F)F)C1)CC2 (stereo not shown) [Example 74, (3-(4,4-bis(methoxymethyl)-cyclohexyl)-2-((methyl(2-(methylamino)ethyl)amino)-methyl)-6,7-dihydropyrazolo-[1,5-a]pyrazin-5(4H)-yl)(3-(trifluoromethyl)cyclobutyl)-methanone] | 93 | 142 | 54 | 57
COCC1(COC)CCC(c2c(CN(C)CCN)nn3c2CN(C(=O)C2(F)CCC2)CC3)CC1 [Example 49, (2-(((2-aminoethyl)(methyl)-amino)methyl)-3-(4,4-bis-(methoxymethyl)cyclohexyl)-6,7-dihydropyrazolo[1,5-a]-pyrazin-5(4H)-yl)(1-fluoro-cyclobutyl)methanone] | 166 | 329 | 118 | 13
COCC1(COC)CCC(c2c(CN(C)CCN)nn3c2CN(C(=O)C2CC(F)(F)C2)CC3)CC1 [Example 40, (2-(((2-aminoethyl)(methyl)-amino)methyl)-3-(4,4-bis-(methoxymethyl)cyclohexyl)-6,7-dihydropyrazolo[1,5-a]-pyrazin-5(4H)-yl)(3,3-difluorocyclobutyl)-methanone] | 249 | 1520 | 304 | 54
CNCCN(C)Cc1nn2c(c1C1CCC(COC)(COC)CC1)CN(C(=O)C(C)C(F)(F)F)CC2 (stereo not shown) [Example 68, 1-(3-(4,4-bis(methoxy-methyl)cyclohexyl)-2-((methyl(2-(methylamino)-ethyl)amino)methyl)-6,7-dihydropyrazolo[1,5-a]-pyrazin-5(4H)-yl)-3,3,3-trifluoro-2-methylpropan-1-one] | 71 | 128 | 41 | 121
CNCCN(C)Cc1nn2c(c1C1CCC(COC)(COC)CC1)CN(C(=O)C1CC1)CC2 [Example 5, (3-(4,4-bis(methoxymethyl)-cyclohexyl)-2-((methyl(2-(methylamino)ethyl)amino)-methyl)-6,7-dihydropyrazolo-[1,5-a]pyrazin-5(4H)-yl)-(cyclopropyl)methanone] | 81 | 121 | 58 | 34
